For assay [1], the target named is T1, THAS (tetrahydroalstonine synthase) (Catharanthus roseus, UniProt A0A0F6SD02).
T1 construct: His-tagged, vector pOPINF, expressed in E. coli Rosetta 2 pLysS, HisTrap purified
T1 sequence (A0A0F6SD02 1-356): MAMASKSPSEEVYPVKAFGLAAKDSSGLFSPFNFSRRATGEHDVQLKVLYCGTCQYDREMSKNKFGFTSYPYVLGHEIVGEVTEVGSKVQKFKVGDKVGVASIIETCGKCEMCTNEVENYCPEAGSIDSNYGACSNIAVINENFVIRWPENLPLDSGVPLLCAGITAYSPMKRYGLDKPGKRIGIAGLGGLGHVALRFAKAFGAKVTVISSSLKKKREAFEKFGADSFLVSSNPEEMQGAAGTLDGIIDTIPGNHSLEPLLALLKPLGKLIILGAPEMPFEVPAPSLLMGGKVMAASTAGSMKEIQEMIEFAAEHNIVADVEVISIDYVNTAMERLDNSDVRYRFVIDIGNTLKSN
Description: isothermal titration calorimetry. In kind it is binding. (In general: In ITC the heat of successive injections is recorded.)

The target in assay [2] is T2, SGD (strictosidine glucosidase) (Catharanthus roseus, UniProt Q9M7N7).
T2 construct: recombinant, purified as THAS, expression system of Yerkes et al. 2008
Briefly: in situ deglycosylation, […] min incubation. In kind it is biochemical. As to conditions: strictosidine aglycone formed.

SMILES strings stand for the structures.

In the case of `NC(=O)C1=CN([C@@H]2O[C@H](COP(=O)(O)OP(=O)(O)OC[C@H]3O[C@@H](n4cnc5c(N)ncnc54)[C@H](OP(=O)(O)O)[C@@H]3O)[C@@H](O)[C@H]2O)C=CC1` [NADPH], the Kd in assay [1] worked out at 1500 ± 100 nM. With `C=C[C@H]1[C@H](O[C@@H]2O[C@H](CO)[C@@H](O)[C@H](O)[C@H]2O)OC=C(C(=O)OC)[C@H]1C[C@@H]1NCCc2c1[nH]c1ccccc21` [strictosidine], in assay [2], the “in situ deglycosylation, 10 min incubation” value is listed as “strictosidine was completely converted to the aglycone”.

For orientation: Kd means the concentration at which binding is half-saturated.

Values taken from publication PMC4372254, “Unlocking the Diversity of Alkaloids in Catharanthus roseus: Nuclear Localization Suggests Metabolic Channeling in Secondary Metabolism” (Chemistry & Biology, 2015).
